Data: US20110319432A1 (priority 2009, published 2011)
Where two headings read alike, the source gives them in different places.

Tested on: Phytophthora infestans
Type: cell-based
Details: MTP, absorption 405 nm, 7 days after inoculation, 18° C

Compound | Observed efficacy (0.016 ppm) | Observed efficacy (0.063 ppm) | Observed efficacy (0.25 ppm)
O=C(NCCc1ncc(C(F)(F)F)cc1Cl)c1ccccc1C(F)(F)F [Fluopyram] | 5% | 5% | 
CCCCCCCCc1c(CC)nc2ncnn2c1N [5-Ethyl-6-octyl-[1,2,4]triazolo[1,5-a]pyrimidin-7-ylamine] |  |  | 31%
